Assay results reported in ChEMBL document CHEMBL1201862, “PubChem BioAssay data set” (2004).
Structures can show the parent of a compound that is named as a salt.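 A five-concentration, 48-hour dose response in 96-well plates underlies each endpoint, interpolated linearly between surrounding concentrations. GI50 is the concentration that inhibits growth by half.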 Activity calls are given as the source filed them. Rule as the data show it: active = GI50 up to about 1.1 µM and inactive = higher. Non-standard residues stand in square brackets, D forms with d. Residues, ends and D or L forms follow the SMILES beside them. ξ: configuration not given here. *: point of attachment. X18 = COC1=CC(=O)N(C(=O)C(O*)C(C)C)C1Cc1ccccc1; ξNMe2Val = CC(C)C(C(=O)*)N(C)C; NMeV = CN[CH](C(=O)O)C(C)C

Key:
Assay in all cases: NCI-60 cell line screen, 48 h
IGROV-1 = system: IGROV-1
NCI-H226 = system: NCI-H226
SNB-19 = system: SNB-19
M14 = system: M14
OVCAR-4 = system: OVCAR-4
SK-OV-3 = system: SK-OV-3
NCI-H460 = system: NCI-H460
SK-MEL-28 = system: SK-MEL-28
SF-268 = system: SF-268
SR = system: SR
SNB-75 = system: SNB-75
A549 = system: A549
U-251 = system: U-251
RPMI-8226 = system: RPMI-8226
UO-31 = system: UO-31
MCF7 = system: MCF7
SK-MEL-5 = system: SK-MEL-5
TK-10 = system: TK-10
OVCAR-8 = system: OVCAR-8
SF-295 = system: SF-295

Compound | GI50 (IGROV-1) | GI50 (NCI-H226) | GI50 (SNB-19) | GI50 (M14) | GI50 (OVCAR-4) | GI50 (SK-OV-3) | GI50 (NCI-H460) | GI50 (SK-MEL-28) | GI50 (SF-268) | GI50 (SR) | GI50 (SNB-75) | GI50 (A549) | GI50 (U-251) | GI50 (RPMI-8226) | GI50 (UO-31) | GI50 (MCF7) | GI50 (SK-MEL-5) | GI50 (TK-10) | GI50 (OVCAR-8) | GI50 (SF-295)
O/N=C1/CCCc2nonc21 | > 100 µM (inactive) | > 100 µM (inactive) | > 100 µM (inactive) | > 100 µM (inactive) | > 100 µM (inactive) | > 100 µM (inactive) | > 100 µM (inactive) | > 100 µM (inactive) | > 100 µM (inactive) | > 100 µM (inactive) | > 100 µM (inactive) | > 100 µM (inactive) | > 100 µM (inactive) | > 100 µM (inactive) | > 100 µM (inactive) | > 100 µM (inactive) | > 100 µM (inactive) | > 100 µM (inactive) | > 100 µM (inactive) | > 100 µM (inactive)
O=S(=O)(O)c1ccc(-c2c3nc(c(-c4ccc(S(=O)(=O)O)cc4)c4ccc([nH]4)c(-c4ccc(S(=O)(=O)O)cc4)c4nc(c(-c5ccc(S(=O)(=O)O)cc5)c5ccc2[nH]5)C=C4)C=C3)cc1 | 53.3 µM (inactive) | 32.7 µM (inactive) | 65.9 µM (inactive) | > 100 µM (inactive) | 29 µM (inactive) | 58.3 µM (inactive) | 57.5 µM (inactive) | 24.1 µM (inactive) | > 100 µM (inactive) | 45.3 µM (inactive) | > 100 µM (inactive) | 55.6 µM (inactive) | 60.5 µM (inactive) | 52.8 µM (inactive) | 37.4 µM (inactive) | > 100 µM (inactive) | 51.2 µM (inactive) | 21.6 µM (inactive) | > 100 µM (inactive) | 47.4 µM (inactive)
COC1=CC(=O)N(C(=O)C(OC(=O)C2CCCN2C(=O)C2CCCN2C(=O)C(C(C)C)N(C)C(=O)C(NC(=O)C(C(C)C)N(C)C)C(C)C)C(C)C)C1Cc1ccccc1 (stereo not given) (ξNMe2Val-V[NMeV]PP-X18; configuration not given here) | 0.00231 µM (active) | 0.00773 µM (active) | 0.00629 µM (active) | 0.0027 µM (active) | 0.00826 µM (active) | 0.00485 µM (active) | 0.00158 µM (active) | 0.00309 µM (active) | 0.00189 µM (active) | 0.000251 µM (active) | 0.0018 µM (active) | 0.00955 µM (active) | 0.00235 µM (active) | 0.000524 µM (active) | 0.00938 µM (active) | 0.00024 µM (active) | 0.00109 µM (active) | 0.00682 µM (active) | 0.00201 µM (active) | 0.00161 µM (active)
CC(=O)N(O)CCCCCNC(=O)CCC(=O)N(O)CCCCCNC(=O)CCC(=O)N(O)CCCCCN [DEFEROXAMINE HYDROCHLORIDE] | 65.6 µM (inactive) | 26.9 µM (inactive) | 51.6 µM (inactive) | 19 µM (inactive) | 21.7 µM (inactive) | 38.2 µM (inactive) | 6.53 µM (inactive) | 37.9 µM (inactive) | 24.9 µM (inactive) | 8.87 µM (inactive) | > 100 µM (inactive) | 14.5 µM (inactive) | 20.6 µM (inactive) | 62.5 µM (inactive) | 24.5 µM (inactive) | 37.9 µM (inactive) | 21.7 µM (inactive) | 42 µM (inactive) | 38.4 µM (inactive) | 7.38 µM (inactive)
